Experiment [1] has as its system RAW264.7. The experiment can be described thus: Suppression of nitric oxide production in the LPS/IFN gamma stimulated RAW264.7 cells. The note with it: Mus musculus. The class given is functional, cell-based.
In experiment [2] the test system is RAW264.7. The experiment can be described thus: Inhibition of LPS/IFN gamma stimulated RAW264.7 cells determined by MTS assay. The settings on record: Mus musculus. The class given is functional.

By IC50 is commonly meant the concentration that inhibits the measured activity by half. Low readings indicate inhibition by little substance, high ones a need for much substance. By GI50 is commonly meant the concentration at which growth is held to half of that of the control. Read a high GI50 as less potent growth inhibition. As for `CCC(/C=C1\Sc2ccccc2N1C)=C\c1sc2ccccc2[n+]1C`, the midpoint of inhibition in the experiment on RAW264.7 [1], the IC50, lay at 0.055 µM. This molecule yielded a GI50 with RAW264.7 [2] of 5.5 µM.
The corresponding values for `CCC(/C=C1\Sc2ccccc2N1CCCS(=O)(=O)O)=C\c1sc2ccccc2[n+]1CC` are 5.78 µM and above 10 µM.
For `CCC(/C=C1\Sc2ccc(Cl)cc2N1CC)=C\c1sc2ccc(Cl)cc2[n+]1CC`, the half-maximal inhibitory concentration (IC50) in the experiment on RAW264.7 [1] is 0.741 µM. In the experiment on RAW264.7 [2], the GI50 was found to be 9 µM.
`NC(=C\c1sc2ccccc2[n+]1CCCS(=O)(=O)O)/C=C1\Sc2ccccc2N1CCCS(=O)(=O)O` gave an IC50 in the experiment with RAW264.7 [1] of 51.9 µM. Besides, in the experiment on RAW264.7 [2], the concentration for 50% growth inhibition (GI50) is above 10 µM.
In the experiment on RAW264.7 [1], `CCN1/C(=C/c2sc3ccc(I)cc3[n+]2CC)C=Cc2ccccc21` gave an IC50 of 0.259 µM. The GI50 in the experiment with RAW264.7 [2] is above 10 µM.
On to `CC[n+]1c(/C=C/c2ccc(N(C)C)cc2)sc2cc(C)ccc21`, for which the IC50 in the experiment with RAW264.7 [1] worked out at 2.27 µM. In the experiment with RAW264.7 [2], the GI50 is above 10 µM.
The corresponding values for `CC(/C=C1\Sc2ccccc2N1CCO)=C\c1sc2ccccc2[n+]1CCO` are 20.2 µM and above 10 µM.
In the experiment with RAW264.7 [1], `CCN1/C(=C/c2sc3ccc(C)cc3[n+]2CC)C=Cc2ccccc21` registered an IC50 of 0.295 µM. In the experiment with RAW264.7 [2], this molecule displayed a GI50 above 10 µM.
The like results for `O=S(=O)(O)CCCN1/C(=C/c2sc3ccccc3[n+]2CCCS(=O)(=O)O)C=Cc2ccccc21` were, in that order, 64.6 µM and above 10 µM.
The like results for `CC/C(=C\c1sc2ccc(OC)cc2[n+]1CC)SC` were, in that order, 3.99 µM and above 10 µM.
In the case of `CC[n+]1c(/C=C2\C=Cc3cc(C)ccc3N2C)sc2ccccc21`, in the experiment with RAW264.7 [1], the IC50 is 0.178 µM. Further, the GI50 in the experiment with RAW264.7 [2] was above 10 µM.
On to `CCN1/C(=C/C(=C/c2sc3ccccc3[n+]2CC)OC)Sc2ccccc21`, for which, in the experiment with RAW264.7 [1], half-maximal inhibition (IC50) was put at 0.461 µM. Further, the concentration for 50% growth inhibition (GI50) in the experiment with RAW264.7 [2] was above 10 µM.
In the experiment with RAW264.7 [1], `CCN1/C(=C/c2sc3ccccc3[n+]2C)C=Cc2ccccc21` yielded an IC50 of 0.216 µM. In the experiment with RAW264.7 [2], this molecule displayed a GI50 above 10 µM.
Molecule `CCN1/C(=C/C(=C/c2sc3ccccc3[n+]2CC)SC)Sc2ccccc21` came in with an IC50 in the experiment on RAW264.7 [1] of 0.637 µM. The GI50 in the experiment on RAW264.7 [2] was above 10 µM.
The like results for `CC[n+]1c(C=C2Sc3ccccc3N2CCO)sc2ccccc21` were, in that order, 10.7 µM and above 10 µM.
In the experiment on RAW264.7 [1], `CC[n+]1c(/C=C(\C)NCc2ccccc2)sc2ccccc21` had a half-inhibitory concentration (IC50) of 7.61 µM. The same molecule registered a GI50 in the experiment on RAW264.7 [2] above 10 µM.
`CC/C(=C/c1sc2ccc(OC)cc2[n+]1CC)SC` registered an IC50 with RAW264.7 [1] of 3.64 µM. The same molecule returned a GI50 in the experiment with RAW264.7 [2] above 10 µM.
For the molecule `CC[n+]1c(/C=C(/C)SC)sc2ccccc21`, in the experiment on RAW264.7 [1], the half-maximal inhibitory concentration (IC50) was 24.2 µM. The same molecule gave a 50% growth inhibitory concentration (GI50) in the experiment with RAW264.7 [2] above 10 µM.
The corresponding values for `CCN1C(=Cc2sc3ccccc3[n+]2C)C=Cc2cccc(C)c21` are 0.318 µM and above 10 µM.
`CCN1C(=Cc2sc3ccc(OC)cc3[n+]2CC)C=Cc2ccccc21` showed an IC50 in the experiment on RAW264.7 [1] of 1.06 µM. The same molecule yielded a GI50 with RAW264.7 [2] of 9.3 µM.
In the case of `CC[n+]1c(/C=C(\C)Nc2ccccc2)sc2ccccc21`, in the experiment with RAW264.7 [1], the IC50 was found to be 44.8 µM. The same molecule showed a GI50 with RAW264.7 [2] above 10 µM.
Regarding `CCN1C(=Cc2sc3ccccc3[n+]2C)C=Cc2ccc(C)cc21`, in the experiment with RAW264.7 [1], inhibition was half-maximal at 0.444 µM (IC50). The molecule further returned a GI50 in the experiment with RAW264.7 [2] above 10 µM.
The corresponding values for `CN1/C(=C/C(=C/c2sc3ccccc3[n+]2C)C2CCC2)Sc2ccccc21` are 0.662 µM and 6.5 µM.
In turn, `CCC(/C=C1\Sc2ccccc2N1CC)=C\c1sc2ccccc2[n+]1CC` displayed an IC50 in the experiment with RAW264.7 [1] of 0.062 µM. Moreover, in the experiment on RAW264.7 [2], halving of growth (GI50) required 5.5 µM.
The corresponding values for `CCN1/C(=C/c2sc3ccccc3[n+]2CC)C=Cc2cc(NC(C)=O)ccc21` are 13.3 µM and above 10 µM.
The molecule `CC[n+]1c(/C=C2\C=Cc3ccc(C)cc3N2CCCS(=O)(=O)O)sc2ccccc21` came in with an IC50 with RAW264.7 [1] of 27.2 µM. Moreover, in the experiment on RAW264.7 [2], the GI50 was above 10 µM.
Turning to `CCN1/C(=C/c2sc3ccccc3[n+]2CC)Sc2ccccc21`, in the experiment with RAW264.7 [1], the IC50 amounted to 0.403 µM. Also, the 50% growth inhibitory concentration (GI50) with RAW264.7 [2] was above 10 µM.
The corresponding values for `CC[n+]1c(/C=C/c2ccc(N(C)C)cc2)sc2ccc(C)cc21` are 2.33 µM and above 10 µM.
The like results for `CCCC[n+]1c(C=C2C=Cc3ccccc3N2CC)sc2ccccc21` were, in that order, 0.215 µM and 5.5 µM.
On to `CC[n+]1c(/C=C2\C=Cc3ccc(C)cc3N2C)sc2ccccc21`, for which the IC50 with RAW264.7 [1] came out at 0.253 µM. The 50% growth inhibitory concentration (GI50) with RAW264.7 [2] was above 10 µM.
In the experiment on RAW264.7 [1], `CCN1/C(=C/c2sc3ccccc3[n+]2CC)C=Cc2ccc(C)cc21` showed an IC50 of 0.183 µM. This molecule also came in with a GI50 in the experiment on RAW264.7 [2] above 10 µM.
Regarding `CC/C(=C\c1sc2ccc(OC)cc2[n+]1CCCS(=O)(=O)[O-])SC`, the IC50 in the experiment on RAW264.7 [1] is 66.1 µM. The molecule also yielded a GI50 in the experiment with RAW264.7 [2] above 10 µM.
`CC[n+]1c(/C=C(/C)SC)sc2ccc(OC)cc21`: 18.4 µM corresponded to half-maximal inhibition in the experiment with RAW264.7 [1] (IC50). The same molecule had a GI50 in the experiment on RAW264.7 [2] above 10 µM.
Molecule `CCN1/C(=C/C(C)=C/c2sc3ccccc3[n+]2CC)Sc2ccccc21` yielded an IC50 in the experiment on RAW264.7 [1] of 0.198 µM. The same molecule showed a GI50 in the experiment with RAW264.7 [2] above 10 µM.
On to `CCN1/C(=C/c2sc3ccc(Br)cc3[n+]2CC)C=Cc2ccccc21`, for which the IC50 with RAW264.7 [1] amounted to 0.241 µM. The molecule also gave a GI50 in the experiment with RAW264.7 [2] above 10 µM.
`CN(C)c1ccc(/C=C/c2sc3ccc4ccccc4c3[n+]2C)cc1` yielded a half-maximal inhibitory concentration (IC50) in the experiment on RAW264.7 [1] of 2.16 µM. In the experiment on RAW264.7 [2], this molecule came in with a GI50 above 10 µM.
`CCN1/C(=C/c2sc3ccccc3[n+]2CC)C=Cc2ccccc21` showed an IC50 in the experiment with RAW264.7 [1] of 0.244 µM. This molecule came in with a GI50 with RAW264.7 [2] above 10 µM.
Regarding `CC[n+]1c(/C=C2\Sc3ccccc3N2CCC(=O)O)sc2ccccc21`, in the experiment on RAW264.7 [1], the IC50 was 11.5 µM. The same molecule had a GI50 in the experiment on RAW264.7 [2] above 10 µM.
The corresponding values for `CC[n+]1c(/C=C/c2ccc(N(C)C)cc2)sc2cc(NC(C)=O)ccc21` are 3.31 µM and above 10 µM.
Turning to `COc1ccc2sc(/C=C(\C)SC)[n+](CCCS(=O)(=O)[O-])c2c1`, in the experiment with RAW264.7 [1], the concentration for half-maximal inhibition (IC50) turned out to be 69.5 µM. In the experiment with RAW264.7 [2], this molecule yielded a GI50 above 10 µM.
The like results for `CN1/C(=C/c2sc3ccccc3[n+]2C)Sc2ccccc21` were, in that order, 4.69 µM and above 10 µM.
Turning to `CCCN1/C(=C/c2sc3ccccc3[n+]2CC)C=Cc2ccccc21`, the IC50 in the experiment with RAW264.7 [1] came out at 0.288 µM. In addition, the GI50 with RAW264.7 [2] is above 10 µM.
Molecule `CCN1/C(=C/c2sc3cc(OC)c(OC)cc3[n+]2CC)C=Cc2ccccc21` showed an IC50 with RAW264.7 [1] of 0.684 µM. The molecule also returned a GI50 with RAW264.7 [2] above 10 µM.
Molecule `CCN1/C(=C/c2sc3cc(C)c(C)cc3[n+]2CC)C=Cc2ccccc21` had an IC50 in the experiment with RAW264.7 [1] of 0.258 µM. Moreover, the concentration for 50% growth inhibition (GI50) with RAW264.7 [2] stood at 5.8 µM.
As to `CCC(/C=C1\Sc2ccc(Cl)cc2N1C)=C\c1sc2ccc(Cl)cc2[n+]1C`, half-maximal inhibition in the experiment with RAW264.7 [1] (IC50) required 0.402 µM. Growth with RAW264.7 [2] was halved (GI50) at 7.9 µM.
Turning to `CC[n+]1c(/C=C/c2ccc(N(C)C)cc2)sc2ccc(C(=O)OC)cc21`, half-maximal inhibition in the experiment on RAW264.7 [1] (IC50) required 10.8 µM. The same molecule gave a GI50 in the experiment on RAW264.7 [2] above 10 µM.
Regarding `CN(C)c1ccc(/C=C/c2sc3ccccc3[n+]2C)cc1`, in the experiment on RAW264.7 [1], the concentration for half-maximal inhibition (IC50) turned out to be 4.8 µM. In the experiment with RAW264.7 [2], this molecule registered a GI50 above 10 µM.
`CCN1/C(=C/C(N)=C/c2sc3ccccc3[n+]2CC)Sc2ccccc21` came in with an IC50 in the experiment with RAW264.7 [1] of 0.847 µM. In the experiment with RAW264.7 [2], this molecule displayed a GI50 above 10 µM.
Molecule `CC[n+]1c(/C=C/c2ccc(N(C)C)cc2)sc2ccccc21` showed an IC50 in the experiment with RAW264.7 [1] of 4.94 µM. The molecule also showed a concentration for 50% growth inhibition (GI50) in the experiment with RAW264.7 [2] above 10 µM.

Source of the values: ChEMBL document CHEMBL1143526, “Benzothiazolium compounds: novel classes of inhibitors that suppress the nitric oxide production in RAW264.7 cells stimulated by LPS/IFNgamma” (Bioorg Med Chem Lett, 2005).
